From the supplement of paper PMC10307832

Assays:
Assay in all cases: relative viability (nuclei count vs DMSO), 5 days (fraction); higher = more cells survive
OSI-027 + Pemetrexed = compound: COc1cccc2cc(-c3nc([C@H]4CC[C@H](C(=O)O)CC4)n4ncnc(N)c34)[nH]c12 [OSI-027] + Nc1nc2[nH]cc(CCc3ccc(C(=O)N[C@@H](CCC(=O)O)C(=O)O)cc3)c2c(=O)[nH]1 [Pemetrexed] (partner 0.2 µM)
Procedure, shortened: (§1)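 Lung cancer cell lines in 1536-well plates got either a single drug or a fixed anchor-drug dose together with five library-drug doses (not always all listed) in √10 steps, by pin tool, on the day after seeding. Nuclei were counted after 5 days, and relative viability is the treated-to-vehicle ratio of nuclei counts. Values are medians of duplicate plates.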

Alpelisib + Foretinib = compound: Cc1nc(NC(=O)N2CCC[C@H]2C(N)=O)sc1-c1ccnc(C(C)(C)C(F)(F)F)c1 [Alpelisib] + COc1cc2c(Oc3ccc(NC(=O)C4(C(=O)Nc5ccc(F)cc5)CC4)cc3F)ccnc2cc1OCCCN1CCOCC1 [Foretinib] (partner 0.25 µM)
Procedure, shortened: as §1

Vemurafenib + Olaparib = compound: CCCS(=O)(=O)Nc1ccc(F)c(C(=O)c2c[nH]c3ncc(-c4ccc(Cl)cc4)cc23)c1F [Vemurafenib] + O=C(c1cc(Cc2n[nH]c(=O)c3ccccc23)ccc1F)N1CCN(C(=O)C2CC2)CC1 [Olaparib] (partner 8 µM)
Procedure, shortened: as §1

Alpelisib + Navitoclax = compound: Cc1nc(NC(=O)N2CCC[C@H]2C(N)=O)sc1-c1ccnc(C(C)(C)C(F)(F)F)c1 [Alpelisib] + CC1(C)CCC(c2ccc(Cl)cc2)=C(CN2CCN(c3ccc(C(=O)NS(=O)(=O)c4ccc(N[C@H](CCN5CCOCC5)CSc5ccccc5)c(S(=O)(=O)C(F)(F)F)c4)cc3)CC2)C1 [Navitoclax] (partner 0.5 µM)
Procedure, shortened: as §1

With NCI-H1915 the relative viability (OSI-027 + Pemetrexed; first compound 0.01 µM) was 0.546, the relative viability (OSI-027 + Pemetrexed; first compound 0.03162 µM) was 0.516 and the relative viability (OSI-027 + Pemetrexed; first compound 0.1 µM) was 0.47. It also gave a relative viability (OSI-027 + Pemetrexed; first compound 0.3162 µM) of 0.449, a relative viability (OSI-027 + Pemetrexed; first compound 1 µM) of 0.536 and a relative viability (Alpelisib + Foretinib; first compound 0.04 µM) of 1.12. The relative viability (Alpelisib + Foretinib; first compound 0.1265 µM) was 1.1, the relative viability (Alpelisib + Foretinib; first compound 0.4 µM) was 1.15 and the relative viability (Alpelisib + Foretinib; first compound 1.265 µM) was 1.03. The relative viability (Alpelisib + Foretinib; first compound 4 µM) was 1.09, the relative viability (Vemurafenib + Olaparib; first compound 0.03162 µM) was 0.263 and the relative viability (Vemurafenib + Olaparib; first compound 0.1 µM) was 0.25. The relative viability (Vemurafenib + Olaparib; first compound 0.3162 µM) was 0.242, the relative viability (Vemurafenib + Olaparib; first compound 1 µM) was 0.244 and the relative viability (Alpelisib + Navitoclax; first compound 0.04 µM) was 0.8. It also gave a relative viability (Alpelisib + Navitoclax; first compound 0.1265 µM) of 0.829, a relative viability (Alpelisib + Navitoclax; first compound 0.4 µM) of 0.82 and a relative viability (Alpelisib + Navitoclax; first compound 1.265 µM) of 0.764. The relative viability (Alpelisib + Navitoclax; first compound 4 µM) was 0.504.

Cell Line NCI-H1944 has a relative viability (OSI-027 + Pemetrexed; first compound 0.01 µM) of 0.657, a relative viability (OSI-027 + Pemetrexed; first compound 0.03162 µM) of 0.691 and a relative viability (OSI-027 + Pemetrexed; first compound 0.1 µM) of 0.77. The relative viability (OSI-027 + Pemetrexed; first compound 0.3162 µM) was 0.59, the relative viability (OSI-027 + Pemetrexed; first compound 1 µM) was 0.519 and the relative viability (Alpelisib + Foretinib; first compound 0.04 µM) was 0.786. It also gave a relative viability (Alpelisib + Foretinib; first compound 0.1265 µM) of 0.96, a relative viability (Alpelisib + Foretinib; first compound 0.4 µM) of 0.881 and a relative viability (Alpelisib + Foretinib; first compound 1.265 µM) of 0.581. The relative viability (Alpelisib + Foretinib; first compound 4 µM) was 0.43, the relative viability (Vemurafenib + Olaparib; first compound 0.03162 µM) was 0.426 and the relative viability (Vemurafenib + Olaparib; first compound 0.3162 µM) was 0.384. For the same cell line, the relative viability (Vemurafenib + Olaparib; first compound 1 µM) was 0.359, the relative viability (Alpelisib + Navitoclax; first compound 0.04 µM) was 0.964 and the relative viability (Alpelisib + Navitoclax; first compound 0.1265 µM) was 1.13. For the same cell line, the relative viability (Alpelisib + Navitoclax; first compound 0.4 µM) was 1.09, the relative viability (Alpelisib + Navitoclax; first compound 1.265 µM) was 0.824 and the relative viability (Alpelisib + Navitoclax; first compound 4 µM) was 0.617.

In the case of NCI-H1975, the relative viability (OSI-027 + Pemetrexed; first compound 0.01 µM) is reported as 0.336, the relative viability (OSI-027 + Pemetrexed; first compound 0.03162 µM) is reported as 0.275 and the relative viability (OSI-027 + Pemetrexed; first compound 0.1 µM) is reported as 0.292. For the same cell line, the relative viability (OSI-027 + Pemetrexed; first compound 0.3162 µM) was 0.303, the relative viability (OSI-027 + Pemetrexed; first compound 1 µM) was 0.259 and the relative viability (Alpelisib + Foretinib; first compound 0.04 µM) was 0.915. The relative viability (Alpelisib + Foretinib; first compound 0.1265 µM) was 0.872, the relative viability (Alpelisib + Foretinib; first compound 0.4 µM) was 0.883 and the relative viability (Alpelisib + Foretinib; first compound 1.265 µM) was 0.691. For the same cell line, the relative viability (Alpelisib + Foretinib; first compound 4 µM) was 0.57, the relative viability (Vemurafenib + Olaparib; first compound 0.03162 µM) was 0.728 and the relative viability (Vemurafenib + Olaparib; first compound 0.1 µM) was 0.755. It also gave a relative viability (Vemurafenib + Olaparib; first compound 0.3162 µM) of 0.727, a relative viability (Vemurafenib + Olaparib; first compound 1 µM) of 0.793 and a relative viability (Alpelisib + Navitoclax; first compound 0.04 µM) of 0.963. For the same cell line, the relative viability (Alpelisib + Navitoclax; first compound 0.1265 µM) was 1.06, the relative viability (Alpelisib + Navitoclax; first compound 0.4 µM) was 1.03 and the relative viability (Alpelisib + Navitoclax; first compound 1.265 µM) was 0.788. For the same cell line, the relative viability (Alpelisib + Navitoclax; first compound 4 µM) was 0.511.

Cell Line NCI-H1993 has a relative viability (OSI-027 + Pemetrexed; first compound 0.01 µM) of 0.533, a relative viability (OSI-027 + Pemetrexed; first compound 0.03162 µM) of 0.41 and a relative viability (OSI-027 + Pemetrexed; first compound 0.1 µM) of 0.522. The relative viability (OSI-027 + Pemetrexed; first compound 0.3162 µM) was 0.465, the relative viability (OSI-027 + Pemetrexed; first compound 1 µM) was 0.45 and the relative viability (Alpelisib + Foretinib; first compound 0.04 µM) was 0.737. For the same cell line, the relative viability (Alpelisib + Foretinib; first compound 0.1265 µM) was 0.697, the relative viability (Alpelisib + Foretinib; first compound 0.4 µM) was 0.771 and the relative viability (Alpelisib + Foretinib; first compound 1.265 µM) was 0.544. For the same cell line, the relative viability (Alpelisib + Foretinib; first compound 4 µM) was 0.55, the relative viability (Vemurafenib + Olaparib; first compound 0.03162 µM) was 0.976 and the relative viability (Vemurafenib + Olaparib; first compound 0.3162 µM) was 1.26. For the same cell line, the relative viability (Vemurafenib + Olaparib; first compound 1 µM) was 1.12, the relative viability (Alpelisib + Navitoclax; first compound 0.04 µM) was 1.11 and the relative viability (Alpelisib + Navitoclax; first compound 0.1265 µM) was 0.879. The relative viability (Alpelisib + Navitoclax; first compound 0.4 µM) was 0.874, the relative viability (Alpelisib + Navitoclax; first compound 1.265 µM) was 0.659 and the relative viability (Alpelisib + Navitoclax; first compound 4 µM) was 0.702.

NCI-H2009 was tested, and the relative viability (OSI-027 + Pemetrexed; first compound 0.01 µM) was 1.15, the relative viability (OSI-027 + Pemetrexed; first compound 0.03162 µM) was 1.05 and the relative viability (OSI-027 + Pemetrexed; first compound 0.1 µM) was 1.04. The relative viability (OSI-027 + Pemetrexed; first compound 0.3162 µM) was 0.998, the relative viability (OSI-027 + Pemetrexed; first compound 1 µM) was 0.687 and the relative viability (Alpelisib + Foretinib; first compound 0.04 µM) was 1.23. The relative viability (Alpelisib + Foretinib; first compound 0.1265 µM) was 1.2, the relative viability (Alpelisib + Foretinib; first compound 0.4 µM) was 1.25 and the relative viability (Alpelisib + Foretinib; first compound 1.265 µM) was 1.1. For the same cell line, the relative viability (Alpelisib + Foretinib; first compound 4 µM) was 1.1, the relative viability (Vemurafenib + Olaparib; first compound 0.03162 µM) was 0.61 and the relative viability (Vemurafenib + Olaparib; first compound 0.1 µM) was 0.661. It also gave a relative viability (Vemurafenib + Olaparib; first compound 0.3162 µM) of 0.612, a relative viability (Vemurafenib + Olaparib; first compound 1 µM) of 0.652 and a relative viability (Alpelisib + Navitoclax; first compound 0.04 µM) of 1.24. The relative viability (Alpelisib + Navitoclax; first compound 0.1265 µM) was 1.14, the relative viability (Alpelisib + Navitoclax; first compound 0.4 µM) was 1.16 and the relative viability (Alpelisib + Navitoclax; first compound 1.265 µM) was 1.08. It also gave a relative viability (Alpelisib + Navitoclax; first compound 4 µM) of 1.13.

NCI-H2023 showed a relative viability (OSI-027 + Pemetrexed; first compound 0.01 µM) of 0.254, a relative viability (OSI-027 + Pemetrexed; first compound 0.03162 µM) of 0.242 and a relative viability (OSI-027 + Pemetrexed; first compound 0.1 µM) of 0.201. It also gave a relative viability (OSI-027 + Pemetrexed; first compound 0.3162 µM) of 0.173, a relative viability (OSI-027 + Pemetrexed; first compound 1 µM) of 0.121 and a relative viability (Alpelisib + Foretinib; first compound 0.04 µM) of 0.82. For the same cell line, the relative viability (Alpelisib + Foretinib; first compound 0.1265 µM) was 0.844, the relative viability (Alpelisib + Foretinib; first compound 0.4 µM) was 0.667 and the relative viability (Alpelisib + Foretinib; first compound 1.265 µM) was 0.605. For the same cell line, the relative viability (Alpelisib + Foretinib; first compound 4 µM) was 0.527, the relative viability (Vemurafenib + Olaparib; first compound 0.03162 µM) was 0.463 and the relative viability (Vemurafenib + Olaparib; first compound 0.1 µM) was 0.42. For the same cell line, the relative viability (Vemurafenib + Olaparib; first compound 0.3162 µM) was 0.483, the relative viability (Vemurafenib + Olaparib; first compound 1 µM) was 0.479 and the relative viability (Alpelisib + Navitoclax; first compound 0.04 µM) was 0.882. It also gave a relative viability (Alpelisib + Navitoclax; first compound 0.1265 µM) of 1.01, a relative viability (Alpelisib + Navitoclax; first compound 0.4 µM) of 0.887 and a relative viability (Alpelisib + Navitoclax; first compound 1.265 µM) of 0.782. For the same cell line, the relative viability (Alpelisib + Navitoclax; first compound 4 µM) was 0.66.

Work on NCI-H2085 yielded a relative viability (OSI-027 + Pemetrexed; first compound 0.01 µM) of 0.776, a relative viability (OSI-027 + Pemetrexed; first compound 0.03162 µM) of 0.879 and a relative viability (OSI-027 + Pemetrexed; first compound 0.1 µM) of 0.797. It also gave a relative viability (OSI-027 + Pemetrexed; first compound 0.3162 µM) of 0.841, a relative viability (OSI-027 + Pemetrexed; first compound 1 µM) of 0.795 and a relative viability (Alpelisib + Foretinib; first compound 0.04 µM) of 0.93. For the same cell line, the relative viability (Alpelisib + Foretinib; first compound 0.1265 µM) was 0.845, the relative viability (Alpelisib + Foretinib; first compound 0.4 µM) was 1.05 and the relative viability (Alpelisib + Foretinib; first compound 1.265 µM) was 1.07. It also gave a relative viability (Alpelisib + Foretinib; first compound 4 µM) of 0.833, a relative viability (Vemurafenib + Olaparib; first compound 0.03162 µM) of 0.737 and a relative viability (Vemurafenib + Olaparib; first compound 0.1 µM) of 0.791. For the same cell line, the relative viability (Vemurafenib + Olaparib; first compound 0.3162 µM) was 0.632, the relative viability (Vemurafenib + Olaparib; first compound 1 µM) was 0.858 and the relative viability (Alpelisib + Navitoclax; first compound 0.04 µM) was 1.2. It also gave a relative viability (Alpelisib + Navitoclax; first compound 0.1265 µM) of 1.06, a relative viability (Alpelisib + Navitoclax; first compound 0.4 µM) of 1.14 and a relative viability (Alpelisib + Navitoclax; first compound 1.265 µM) of 0.914. For the same cell line, the relative viability (Alpelisib + Navitoclax; first compound 4 µM) was 1.11.

NCI-H2087 gave a relative viability (OSI-027 + Pemetrexed; first compound 0.01 µM) of 0.696, a relative viability (OSI-027 + Pemetrexed; first compound 0.03162 µM) of 0.674 and a relative viability (OSI-027 + Pemetrexed; first compound 0.1 µM) of 0.694. For the same cell line, the relative viability (OSI-027 + Pemetrexed; first compound 0.3162 µM) was 0.533, the relative viability (OSI-027 + Pemetrexed; first compound 1 µM) was 0.338 and the relative viability (Alpelisib + Foretinib; first compound 0.04 µM) was 0.903. For the same cell line, the relative viability (Alpelisib + Foretinib; first compound 0.1265 µM) was 1.07, the relative viability (Alpelisib + Foretinib; first compound 0.4 µM) was 1.31 and the relative viability (Alpelisib + Foretinib; first compound 1.265 µM) was 0.814. It also gave a relative viability (Alpelisib + Foretinib; first compound 4 µM) of 0.614, a relative viability (Vemurafenib + Olaparib; first compound 0.03162 µM) of 0.506 and a relative viability (Vemurafenib + Olaparib; first compound 0.1 µM) of 0.588. It also gave a relative viability (Vemurafenib + Olaparib; first compound 0.3162 µM) of 0.504, a relative viability (Vemurafenib + Olaparib; first compound 1 µM) of 0.47 and a relative viability (Alpelisib + Navitoclax; first compound 0.04 µM) of 1.01. It also gave a relative viability (Alpelisib + Navitoclax; first compound 0.1265 µM) of 1.09, a relative viability (Alpelisib + Navitoclax; first compound 0.4 µM) of 1.1 and a relative viability (Alpelisib + Navitoclax; first compound 1.265 µM) of 0.767. It also gave a relative viability (Alpelisib + Navitoclax; first compound 4 µM) of 0.991.
